Experimental data as given in ChEMBL document CHEMBL2380231, “X-ray crystal structure of ERK5 (MAPK7) in complex with a specific inhibitor” (J Med Chem, 2013).
The source made the active and inactive calls. The calls are words filed in the database; no cut-off is given here.

How the values were obtained:
Assay type in all cases: cell-based
[1] = target: T1, Mitogen-activated protein kinase 7 (Homo sapiens, UniProt Q13164); assay: Inhibition of ERK5 autophosphorylation in sorbitol-stimulated human HeLa cells at 0.04 to 5 uM incubated for 1 hr prior to sorbitol stimulation measured after 30 mins by Western blot analysis
Target sequence in this assay (Q13164 2-816 limits assumed): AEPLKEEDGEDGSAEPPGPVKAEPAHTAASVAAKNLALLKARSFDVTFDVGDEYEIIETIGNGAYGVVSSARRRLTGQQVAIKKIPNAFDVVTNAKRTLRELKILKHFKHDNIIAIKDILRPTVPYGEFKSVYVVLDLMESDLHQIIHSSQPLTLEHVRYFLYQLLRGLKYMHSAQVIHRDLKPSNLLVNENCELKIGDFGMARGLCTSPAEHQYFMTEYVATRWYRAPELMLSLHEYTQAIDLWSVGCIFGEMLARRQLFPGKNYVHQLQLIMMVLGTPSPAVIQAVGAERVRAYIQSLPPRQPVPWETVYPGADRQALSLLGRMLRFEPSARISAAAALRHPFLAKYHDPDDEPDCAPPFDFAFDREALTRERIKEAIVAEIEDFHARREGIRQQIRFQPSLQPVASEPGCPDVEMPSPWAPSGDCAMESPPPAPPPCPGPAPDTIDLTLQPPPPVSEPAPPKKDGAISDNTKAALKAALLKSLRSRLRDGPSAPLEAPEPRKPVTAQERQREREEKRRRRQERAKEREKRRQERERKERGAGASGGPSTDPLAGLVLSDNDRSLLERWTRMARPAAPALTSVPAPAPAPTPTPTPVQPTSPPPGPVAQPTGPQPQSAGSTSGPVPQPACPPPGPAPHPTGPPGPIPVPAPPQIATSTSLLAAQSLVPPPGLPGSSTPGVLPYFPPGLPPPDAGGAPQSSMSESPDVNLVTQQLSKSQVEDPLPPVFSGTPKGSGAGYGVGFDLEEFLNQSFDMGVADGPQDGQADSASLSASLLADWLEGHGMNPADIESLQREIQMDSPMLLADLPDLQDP

[2] = target: T2, Mitogen-activated protein kinase; ERK1/ERK2 (Homo sapiens) (UniProt P27361+P28482); assay: Inhibition of total ERK1/ERK2 in sorbitol-stimulated human HeLa cells at 0.04 to 5 uM incubated for 1 hr prior to sorbitol stimulation measured after 30 mins by Western blot analysis
T2 sequence (P27361 whole entry, looked up): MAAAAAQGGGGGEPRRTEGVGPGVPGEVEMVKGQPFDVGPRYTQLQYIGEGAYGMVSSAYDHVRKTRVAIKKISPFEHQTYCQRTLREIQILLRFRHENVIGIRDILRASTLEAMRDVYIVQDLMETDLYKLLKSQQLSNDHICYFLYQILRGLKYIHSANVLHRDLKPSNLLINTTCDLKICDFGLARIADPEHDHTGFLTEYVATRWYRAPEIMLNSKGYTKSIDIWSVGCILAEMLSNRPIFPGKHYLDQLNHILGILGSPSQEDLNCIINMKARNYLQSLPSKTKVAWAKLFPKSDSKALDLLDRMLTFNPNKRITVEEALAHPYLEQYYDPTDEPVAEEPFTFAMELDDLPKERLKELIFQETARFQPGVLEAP
T2 sequence (P28482 whole entry, looked up): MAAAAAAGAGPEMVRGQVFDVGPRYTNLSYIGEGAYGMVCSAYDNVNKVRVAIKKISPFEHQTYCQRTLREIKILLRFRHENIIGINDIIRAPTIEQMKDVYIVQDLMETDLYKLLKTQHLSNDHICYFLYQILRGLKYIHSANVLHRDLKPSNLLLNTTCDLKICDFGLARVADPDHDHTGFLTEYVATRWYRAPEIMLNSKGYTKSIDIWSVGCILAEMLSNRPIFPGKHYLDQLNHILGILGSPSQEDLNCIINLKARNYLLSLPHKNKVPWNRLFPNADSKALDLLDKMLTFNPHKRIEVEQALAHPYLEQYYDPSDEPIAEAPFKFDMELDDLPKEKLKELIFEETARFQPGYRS

[3] = target: T2, Mitogen-activated protein kinase; ERK1/ERK2 (Homo sapiens); assay: Inhibition of ERK1/ERK2 phosphorylation in sorbitol-stimulated human HeLa cells at 0.04 to 5 uM incubated for 1 hr prior to sorbitol stimulation measured after 30 mins by Western blot analysis
[4] = target: T1, Mitogen-activated protein kinase 7; assay: Inhibition of GST-tagged full length human ERK5 transfected in HEK293 cells assessed as inhibition of AP1 transcriptional activity after 24 hrs by dual luciferase reporter gene assay
Target sequence in this assay (Q13164 whole entry): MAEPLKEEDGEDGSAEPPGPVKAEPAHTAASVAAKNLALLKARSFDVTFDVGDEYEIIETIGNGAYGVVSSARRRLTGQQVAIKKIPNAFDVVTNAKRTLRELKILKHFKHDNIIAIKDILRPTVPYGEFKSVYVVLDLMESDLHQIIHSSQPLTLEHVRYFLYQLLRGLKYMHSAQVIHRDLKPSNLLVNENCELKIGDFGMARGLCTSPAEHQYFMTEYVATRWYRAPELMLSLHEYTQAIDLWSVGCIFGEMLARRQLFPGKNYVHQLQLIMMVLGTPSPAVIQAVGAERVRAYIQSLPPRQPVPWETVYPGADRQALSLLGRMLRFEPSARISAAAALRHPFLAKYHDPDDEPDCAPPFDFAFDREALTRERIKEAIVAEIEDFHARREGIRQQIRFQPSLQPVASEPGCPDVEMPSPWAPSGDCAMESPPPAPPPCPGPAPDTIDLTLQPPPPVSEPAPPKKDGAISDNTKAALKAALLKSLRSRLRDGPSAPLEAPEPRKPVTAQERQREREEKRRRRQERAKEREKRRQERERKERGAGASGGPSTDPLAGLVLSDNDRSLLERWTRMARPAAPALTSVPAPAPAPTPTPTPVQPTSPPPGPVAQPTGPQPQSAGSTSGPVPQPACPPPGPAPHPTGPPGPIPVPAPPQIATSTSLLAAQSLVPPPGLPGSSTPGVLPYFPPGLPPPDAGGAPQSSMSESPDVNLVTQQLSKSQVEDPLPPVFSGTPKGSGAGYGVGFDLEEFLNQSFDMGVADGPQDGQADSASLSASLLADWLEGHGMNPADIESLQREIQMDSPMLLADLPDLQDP

inhibition [1]	inhibition [2]	inhibition [3]	EC50 [4] [µM]	SMILES
Active	inactive	inactive	–	CCOc1cc(C(=O)N2CCC(N3CCN(C)CC3)CC2)ccc1Nc1ncc2c(n1)N(C1CCCC1)c1ccccc1C(=O)N2C
–	–	–	> 30	COc1cc(C(=O)N2CCC(N3CCN(C)CC3)CC2)ccc1Nc1ncc2c(n1)N1CCc3cccc(c31)C(=O)N2C
